Source: patent publication US20080207634A1, “Chemical Compounds” (priority 2004, published 2008)

Experiments:
T-tropic HIV = settings: patients that are dual tropic or with only the T-tropic form of the virus; cited from earlier work
human CXCR4 = biological target: T1, human CXCR4 (Homo sapiens, UniProt P61073); assay: Functional FLIPR assay (block of SDF-1 alpha induced [Ca2+]i change); format: cell-based; settings: HEK-293 cells with human CXCR4 BacMam and Gqi5 BacMam; antagonism of SDF-1 alpha; read-out: Functional assay (pIC50) (converted)
T1 construct: expressed in transfected cells; host or cells: HEK-293 cells (stably expressing human macrophage scavenging receptor) transduced with human CXCR4 BacMam and Gqi5 BacMam
T1 sequence (P61073 whole entry): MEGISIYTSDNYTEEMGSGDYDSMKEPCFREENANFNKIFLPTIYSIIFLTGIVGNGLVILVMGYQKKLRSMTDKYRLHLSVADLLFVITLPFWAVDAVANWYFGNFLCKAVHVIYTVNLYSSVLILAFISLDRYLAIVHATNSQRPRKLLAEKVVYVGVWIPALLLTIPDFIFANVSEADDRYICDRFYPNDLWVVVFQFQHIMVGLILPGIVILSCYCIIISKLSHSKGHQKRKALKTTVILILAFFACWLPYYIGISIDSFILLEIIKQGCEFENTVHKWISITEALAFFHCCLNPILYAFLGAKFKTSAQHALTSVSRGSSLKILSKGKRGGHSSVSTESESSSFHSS
Method: Human embryonic kidney (HEK-293) cells were maintained and harvested as described above. Cells were plated in 96-well, black clear bottom, poly-lysine coated plates at a concentration of 40,000 cells per well in a final volume of 100 ul containing human CXCR4BacMam (MOI=25) and Gqi5 BacMam (MOI=12.5). The cells were incubated at 37° C., 5% CO2, 95% humidity for 24 h to allow for protein expression.
After the required incubation time the cells were washed once with 50 ul of fresh serum-free DMEM/F12 media containing probenicid. 50 ul of dye solution was then added to the cells (Calcium Plus Assay Kit Dye; Molecular Devices) was dissolved in 200 ml of the above probenicid/BSA containing media and incubated for 1 h. Cell plates were transferred to a Fluorometric Imaging Plate Reader (FLIPR). Upon addition the effect of the compounds on the change in [Ca^2+]i was examined to determine if the compounds were agonists or antagonists (ability to block SDF-1 alpha activity) at the CXCR4 receptor. IC50 values are determined and pKb values are calculated using the Leff and Dougall equation: KB═IC50/((2+([agonist]/EC50̂b) ̂1/b−1) Where IC50 is that defined by the antagonist concentration-response curve [agonist] is the EC80 concentration of agonist used EC50 is that defined by the agonist concentration-response curve b is the slope of the agonist concentration-response curve.

[1] = Cell/cell fusion assay (luciferase); format: cell-based; settings: Homo sapiens, HEK293; 24 h incubation, luciferase readout; read-out: Fusion assay (pIC50) (converted)
Description: The complete coding sequences of HIV-1 tat (GenBank Accession No. X07861) and rev (GenBank Accession No. M34378) were cloned into pcDNA3.1 expression vectors containing G418 and hygromycin resistance genes, respectively. The complete coding sequence of the HIV-1 (HXB2 strain) gp160 envelope gene (nucleotide bases 6225-8795 of GenBank Accession No. K03455) was cloned into plasmid pCRII-TOPO. The three HIV genes were additionally inserted into the baculovirus shuttle vector, pFastBacMam1, under the transcriptional control of the CMV promoter. A construction of the pHIV—I LTR containing mutated NFkB sequences linked to the luciferase reporter gene was prepared by digesting pcDNA3.1, containing the G418 resistance gene, with Nru I and Bam HI to remove the CMV promoter. LTR-luc was then cloned into the Nru I/Bam HI sites of the plasmid vector. Plasmid preparations were performed after the plasmids were amplified in Escherichia coli strain DH5-alpha. The fidelity of the inserted sequences was confirmed by double-strand nucleotide sequencing using an ABI Prism Model 377 automated sequencer.
Recombinant BacMam baculoviruses were constructed from pFastBacMam shuttle plasmids by using the bacterial cell-based Bac-to-Bac system. Viruses were propagated in Sf9 (Spodoptera frugiperda) cells cultured in Hink's TNM-FH Insect media supplemented with 10% (v/v) fetal bovine serum and 0.1% (v/v) pluronic F-68 according to established protocols.
Human osteosarcoma (HOS) cells that naturally express human CXCR4 were transfected with human CCR5, human CD4 and the pHIV-LTR-luciferase plasmid using FuGENE 6 transfection reagent. Single cells were isolated and grown under selection condition in order to generate a stable HOS (hCXCR4/hCCR5/hCD4/pHIV-LTR-luciferase) clonal cell line. The cells were maintained in Dulbeccos modified Eagles media supplemented with 10% fetal calf serum (FCS), G418 (400 ug/ml), puromycin (1 ug/ml), mycophenolic acid (40 ug/ml), xanthine (250 ug/ml) and hypoxanthine (13.5 ug/ml) to maintain a selection pressure for cells expressing the LTR-luciferase, hCCR5 and hCD4, respectively. Human embryonic kidney (HEK-293) cells stably transfected to express the human macrophage scavenging receptor (Class A, type 1; GenBank Accession No. D90187), were maintained in DMEM/F-12 media (1:1) supplemented with 10% FCS and 1.5 ug/ml puromycin. The expression of this receptor by the HEK-293 cells enhances their ability to stick to tissue culture treated plasticware.
HEK-293 cells were harvested using enzyme-free cell dissociation buffer. The cells were resuspended in DMEM/F-12 media supplemented with 10% FCS and 1.5 ug/ml and counted. […]
Following the 24 h incubation, total cellular luciferase activity was measured using the LucLite Plus assay kit (Packard, Meridien, Conn.). […]

[2] = Compound cytotoxicity in the absence of virus (CellTiter-Glo); format: cell-based; settings: human; HOS cells, no virus; read-out: Cytotox (pIC50) (converted)
Method: (§1) Compounds were profiled against two HIV-1 viruses, the M-tropic (CCR5 utilizing) Ba-L strain and the T-tropic (CXCR4 utilizing) IIIB strain. Both viruses were propagated in human peripheral blood lymphocytes. Compounds were tested for there ability to block infection of the HOS cell line (expressing hCXCR4/hCCR5/hCD4/pHIV-LTR-luciferase) by either HIV-1 Ba-L or HIV-1 IIIB. Compound cytotoxicity was also examined in the absence of virus addition.
(§2) HOS cells (expressing hCXCR4/hCCR5/hCD4/pHIV-LTR-luciferase) were harvested and diluted in Dulbeccos modified Eagles media supplemented with 2% FCS and non-essential amino acid to a concentration of 60,000 cells/ml. The cells were plated into 96-well plates (100 ul per well) and the plates were placed in a tissue culture incubator (37° C.; 5% CO2/95% air) for a period of 24 h.
(§3) Subsequently, 50 ul of the desired drug solution (4 times the final concentration) was added to each well and the plates were returned to the tissue culture incubator (37° C.; 5% CO2/95% air) for 1 h. Following this incubation 50 ul of diluted virus was added to each well (approximately 2 million RLU per well of virus). The plates were returned to the tissue culture incubator (37° C.; 5% CO2/95% air) and were incubated for a further 96 h.
(§4) Following this incubation the endpoint for the virally infected cultures was quantified following addition of Steady-Glo Luciferase assay system reagent (Promega, Madison, Wis.). Cell viability or non-infected cultures was measured using a CellTiter-Glo luminescent cell viability assay system (Promega, Madison, Wis.). All luminescent readouts are performed on a Topcount luminescence detector (Packard, Meridien, Conn.).

[3] = test system: HIV-1 IIIB (T-tropic, CXCR4 utilizing); assay: HOS HIV-1 infectivity assay, IIIB strain; format: cell-based; settings: Human immunodeficiency virus 1; HOS cells infected with HIV-1 IIIB, 96 h, luciferase; read-out: HOS (3B)
Method: as §1, §2, §3, §4

HIV = assay: HOS HIV anti-infectivity assay (strain not stated); format: cell-based; settings: Human immunodeficiency virus 1, activity level class, read-out: Antiviral acitivity
Method: as §1, §2, §3, §4

For c1cc(CN2CCCNCCNCCCNCC2)ccc1CN1CCCNCCNCCCNCC1 [AMD-3100], the “T-tropic HIV viral load” value (T-tropic HIV) is listed as “significantly reduce T-tropic HIV viral load”.

In the case of CN(Cc1cn2c(F)cccc2n1)C1CCOc2cccnc21 (stereo not shown) [Example 2, N-[(5-Fluoroimidazo[1,2-a]pyridin-2-yl)methyl]-N-methyl-3,4-dihydro-2H-pyrano[3,2-b]pyridin-4-amine], the IC50 (human CXCR4) is reported as over 10000 nM, the IC50 [1] is reported as over 10000 nM and the IC50 at 97 h [2] is reported as over 10000 nM. For the same molecule, the IC50 [3] was over 20000 nM.

For CN1CCN(c2cccc3nc(CN(C)C4CCOc5cccnc54)cn23)CC1 (stereo not shown) [Example 3, N-Methyl-N-{[5-(4-methyl-1-piperazinyl)imidazo[1,2-a]pyridin-2-yl]methyl}-3,4-dihydro-2H-pyrano[3,2-b]pyridin-4-amine], the IC50 (human CXCR4) was 6.92 nM, the IC50 [1] was 2.63 nM and the IC50 at 97 h [2] was over 10000 nM. For the same molecule, the IC50 [3] was 17 nM and the IC50 (HIV) was under 100 nM.

Molecule CN(Cc1cn2c(N3CCNCC3)cccc2n1)C1CCOc2cccnc21 (stereo not shown) [Example 4, N-Methyl-N-{[5-(1-piperazinyl)imidazo[1,2-a]pyridin-2-yl]methyl}-3,4-dihydro-2H-pyrano[3,2-b]pyridin-4-amine] has an IC50 (human CXCR4) of 25.1 nM, an IC50 [1] of 26.9 nM and an IC50 at 97 h [2] of over 10000 nM. For the same molecule, the IC50 [3] was 34 nM and the IC50 (HIV) was under 100 nM.

Work on CN(C)CCN(C)c1cccc2nc(CN(C)C3CCOc4cccnc43)cn12 (stereo not shown) [Example 5] yielded an IC50 (human CXCR4) of 69.2 nM, an IC50 [1] of 61.7 nM and an IC50 at 97 h [2] of over 10000 nM. For the same molecule, the IC50 [3] was 61 nM and the IC50 (HIV) was under 100 nM.

Work on CN(Cc1cn2c(N3CCNC(=O)C3)cccc2n1)[C@H]1CCOc2cccnc21 [Example 7, 4-(2-{[(4S)-3,4-Dihydro-2H-pyrano[3,2-b]pyridin-4-yl(methyl)amino]methyl}imidazo[1,2-a]pyridin-5-yl)-2-piperazinone] yielded an IC50 (HIV) of 500 to 10000 nM.

Molecule CC(C)N1CCN(c2cccc3nc(CN(C)[C@H]4CCOc5cccnc54)cn23)CC1 [Example 8, (4S)—N-Methyl-N-({5-[4-(1-methylethyl)-1-piperazinyl]imidazo[1,2-a]pyridin-2-yl}methyl)-3,4-dihydro-2H-pyrano[3,2-b]pyridin-4-amine] has an IC50 (HIV) of under 100 nM.

Molecule CN(C)C1CCN(c2cccc3nc(CN(C)[C@H]4CCOc5cccnc54)cn23)C1 (stereo partly drawn) [Example 9, (4S)—N-({5-[3-(Dimethylamino)-1-pyrrolidinyl]imidazo[1,2-a]pyridin-2-yl}methyl)-N-methyl-3,4-dihydro-2H-pyrano[3,2-b]pyridin-4-amine] has an IC50 (HIV) of under 100 nM.

With CN(Cc1cn2c(N3CCC(N)CC3)cccc2n1)[C@H]1CCOc2cccnc21 [Example 10, (4S)—N-{[5-(4-Amino-1-piperidinyl)imidazo[1,2-a]pyridin-2-yl]methyl}-N-methyl-3,4-dihydro-2H-pyrano[3,2-b]pyridin-4-amine] the IC50 (HIV) was under 100 nM.

Molecule CN(Cc1cn2c(N3CCC(N)C3)cccc2n1)[C@H]1CCOc2cccnc21 (stereo partly drawn) [Example 11, (4S)—N-{[5-(3-Amino-1-pyrrolidinyl)imidazo[1,2-a]pyridin-2-yl]methyl}-N-methyl-3,4-dihydro-2H-pyrano[3,2-b]pyridin-4-amine] has an IC50 (HIV) of under 100 nM.

For CN1CCC(N(C)c2cccc3nc(CN(C)C4CCOc5cccnc54)cn23)C1 (stereo not shown) [Example 12, N-Methyl-N-({5-[methyl(1-methyl-3-pyrrolidinyl)amino]imidazo[1,2-a]pyridin-2-yl}methyl)-3,4-dihydro-2H-pyrano[3,2-b]pyridin-4-amine], the IC50 (HIV) was under 100 nM.

In the case of CN1CCN(c2cccc3nc(CN(C)[C@H]4CCOc5cccnc54)cn23)CC1 [Example 13, (4S)—N-Methyl-N-{[5-(4-methyl-1-piperazinyl)imidazo[1,2-a]pyridin-2-yl]methyl}-3,4-dihydro-2H-pyrano[3,2-b]pyridin-4-amine], the IC50 (HIV) is reported as under 100 nM.

With CN1CCN(c2cccc3nc(CN(C)C4CCOc5cccnc54)c(CO)n23)CC1 (stereo not shown) [Example 14, [2-{[3,4-dihydro-2H-pyrano[3,2-b]pyridin-4-yl(methyl)amino]methyl}-5-(4-methyl-1-piperazinyl)imidazo[1,2-a]pyridin-3-yl]methanol] the IC50 (HIV) was under 100 nM.
